The record followed here is patent publication US20240246911A1, “NOVEL T[…] METHODS OF TREATING MOOD DISORDERS” (GILGAMESH PHARMACEUTICALS INC., priority 2021, published 2024).

Assay [1] deals with T1, 5-HT2A receptor (Homo sapiens (Human), UniProt P28223). Kind of assay: FLIPR Ca2+ flux functional assay, agonist activity at 5-HT2A. The format is cell-based. As for the experimental part:
(§1) Functional Assays at 5-HT2A, 5-HT2B, and 5-HT1A Receptors. Agonist activity at 5-HT2A, 5-HT2B, and 5-HTIA receptors was determined using a FLIPR Ca^2− flux assay at WuXi AppTec (Hong Kong) Limited according to their standard protocols. Briefly, stably transfected cells expressing the receptor of interest (HEK293 for 5-HT2A and 5-HT2B; CHO cells for 5-HT1A) were grown and plated in a 384-well plate and incubated at 37° C. and 5% CO2 overnight. A solution of 250 mM probenecid in 1 mL FLIPR assay buffer was prepared fresh. This was combined with a fluorescent dye (Fluo-4 Direct™) to make a final assay concentration of 2.5 mM. Compounds were diluted 1:3.16 for 10 points and 750 nL was added to a 384-well compound plate using ECHO along with 30 μL of assay buffer. The fluorescent dye was then added to the assay plate along with assay buffer to a final volume of 40 μL. The cell plate was incubated for 50 min at 37° C.and 5% CO2 and placed into the FLIPR Tetra along with the compound plate. 10 μL of references and compounds were then transferred from the compound plate into the cell plate and the fluorescent signal was read.
(In general: A change in cytosolic calcium serves as a functional read-out for many receptors and channels.)

In assay [2] the test system is rat forced swim test (FST). Kind of assay: Forced swim test in rats. To be noted: s.c., 23.5-h pre-treatment time. The class given is in vivo. As for the experimental part:
Compound 1 is tested for antidepressant-like activity in the rat forced swim test (FST). The compound induces antidepressant-like effects with a 23.5-h pre-treatment time.
Animals. Male Sprague Dawley rats, aged 9-10 weeks, are used in this experiment. Animals are housed in groups of 2 under controlled temperature (22+3°C.) and relative humidity (30-70%) conditions, with 12-hour light/dark cycles, and with ad libitum food and water. This study is carried out in strict accordance with the requirements of the Committee for the Purpose of Control and Supervision of Experiments on Animals (CPCSEA), India. All efforts are made to minimize suffering.
Drugs and Drug Administration. Test compound, saline vehicle, and the positive control desipramine are administered subcutaneously (s.c.), with doses calculated based on the free base. Normal saline is used as the vehicle (or acidified saline in the case of free bases). All compounds are administered at a volume of 5 mL/kg. Test compound and vehicle are administered 0.5 h after the start of the training swim (Swim 1) and 23.5 h before the test swim (Swim 2). […]
Behavioral scoring is conducted by observers who are blind to the treatment groups. Animals are continuously observed during Swim 2 and the total time spent engaging in the following behaviors is recorded: immobile, swimming, and climbing. […]

In the next assay the target is 5-HT2B receptor (Homo sapiens (Human), UniProt P41595). As to the kind of experiment: FLIPR Ca2+ flux functional assay, agonist activity at 5-HT2B. To be noted: for Emax: HEK293 stably transfected cells, Ca2+ flux. The format is cell-based. The protocol: as §1
Another assay has as its system rat synaptosomes. As to the kind of experiment: Synaptosome 5-HT release assay. The class given is biochemical. Conditions: for EC50: rat synaptosomes preloaded with [3H]5-HT, 10 mins. As for the experimental part:
Synaptosome 5-HT Release Assay. Synaptosome release assays were conducted according to modifications of previously described procedures (Partilla et al. (2016). Interrogating the Activity of Ligands at Monoamine Transporters in Rat Brain Synaptosomes. In Neurotransmitter Transporters (pp. 41-52). Springer.). Briefly, synaptosomes were prepared from rat brains. Male
Sprague-Dawley rats were rendered unconscious with CO2 and their brains were immediately removed. The cerebella were discarded and the whole brains (minus striatum) were placed in ice-cold 0.32 M sucrose (10 mL per brain) and gently homogenized by hand. The homogenate of each brain was centrifuged at 1,000×g at 4° C.for 10 mins and the resulting supernatant was diluted with ice-cold 0.32 M sucrose to a total volume of 10 mL to provide the synaptosome solution. […] The incubations were allowed to reach equilibrium for 2 h at 25° C. For the release reactions, 425 μL of preloaded synaptosomes were added to test tubes containing 75 μL of test drugs diluted in KPB containing 1 mg/mL BSA. After 10 mins, the release reaction was stopped using a cell harvester by rapid vacuum filtration over GF/B filter paper presoaked in wash buffer (10 mM Tris-HCl, pH 7.4, 150 mM NaCl) and the filters were washed with additional wash buffer. Filters were dried for 1 h at 60° C.and retained radioactivity was quantified using a MicroBeta 2 liquid scintillation counter. The amount of retained radioactivity was inversely proportional to the extent of release.

Assay [3] has as its target T1, 5-HT2A receptor. Kind of assay: 5-HT2A receptor radioligand binding with [3H]ketanserin. Conditions: HEK293 stable cell line, 1 nM [3H]ketanserin, 1 h, 25° C.
A further assay concerns the target 5-HT1A receptor (Homo sapiens (Human), UniProt P08908). Kind of assay: FLIPR Ca2+ flux functional assay, agonist activity at 5-HT1A. The format is cell-based. To be noted: for Emax: read-out: 5-HT1A Emax. As for the experimental part: as §1
[4] abbreviates: HEK293 stably transfected cells, Ca2+ flux.

Structures can show the parent of a compound that is named as a salt. Where two headings read alike, the source gives them in different places.

Chain of 5-HT2B receptor (P41595 whole entry, looked up): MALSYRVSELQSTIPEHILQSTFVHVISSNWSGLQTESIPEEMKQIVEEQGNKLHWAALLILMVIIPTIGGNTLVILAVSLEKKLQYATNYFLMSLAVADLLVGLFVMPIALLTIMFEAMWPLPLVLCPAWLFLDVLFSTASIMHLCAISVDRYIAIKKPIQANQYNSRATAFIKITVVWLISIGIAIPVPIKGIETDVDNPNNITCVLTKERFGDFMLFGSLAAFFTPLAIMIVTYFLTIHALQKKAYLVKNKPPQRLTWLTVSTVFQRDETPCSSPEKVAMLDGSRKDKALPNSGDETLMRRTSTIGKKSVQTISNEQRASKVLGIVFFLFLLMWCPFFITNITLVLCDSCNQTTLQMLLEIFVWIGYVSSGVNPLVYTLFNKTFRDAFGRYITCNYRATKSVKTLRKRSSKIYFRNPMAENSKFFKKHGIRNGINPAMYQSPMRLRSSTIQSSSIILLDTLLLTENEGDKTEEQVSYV

One may read the EC50 as the midpoint of the concentration-response curve. A word on the Emax: it is the greatest response seen or fitted, relative to the assay's reference. As usually defined, the Ki is the equilibrium dissociation constant of an inhibitor or competing ligand from its target. With `CN(C)CCc1c[nH]c2ccc(OC(F)(F)F)cc12` [Compound 1, N,N-dimethyl-2-(5-(trifluoromethoxy)-1/-indol-3-yl)ethan-1-amine hydrochloride], the EC50 at 5-HT2A receptor [1] was determined as 127 nM; at 5-HT2B receptor, 762 nM; with rat synaptosomes, 192 nM; at 5-HT1A receptor it was 6330 nM. Moreover, on 5-HT2A receptor [1] (Ca2+ flux), the “agonist activity at the 5-HT2A receptor (in words)” value is on record as “potent agonist activity”. The “agonist type at the 5-HT2A receptor (in words)” value on 5-HT2A receptor [1] (Ca2+ flux) is “partial agonist rather than a full agonist”. Besides, the maximum response (Emax) stood at 78.9% on 5-HT2A receptor [1] (setting [4]), 19.6% at 5-HT2B receptor and 81.8% at 5-HT1A receptor. In addition, the “immobility time relative to vehicle control” value in assay [2] is “reduces immobility time relative to vehicle control in a dose-dependent manner”. Also, in the assay on rat synaptosomes (rat synaptosomes), the “5-HT releaser potency compared to 5-MeO-DMT (in words)” value is “much more potent releaser of 5-HT”. In addition, the “% Release @ Max Dose (10 μM)” value in the assay with rat synaptosomes (rat synaptosomes) was determined as 58.77%. The same compound returned a Ki at 5-HT2A receptor [3] of 890 nM.
`COc1ccc2[nH]cc(CCN(C)C)c2c1` [Compound 5-MeO-DMT, 5-methoxy-N,N-dimethyltryptamine, reference compound]: the Emax on 5-HT2A receptor [1] (setting [4]) stood at 106%; on 5-HT2B receptor, 17.6%; at 5-HT1A receptor, 100%. The EC50 with rat synaptosomes is 3950 nM. Further, in the assay with rat synaptosomes (rat synaptosomes), the “% Release @ Max Dose (10 μM)” value amounted to 54.63%.
Take `CN(C)CCc1c[nH]c2ccccc12` [DMT, N,N-dimethyltryptamine, reference compound]: the Emax at 5-HT2A receptor [1] (setting [4]) is 93.4%; on 5-HT2B receptor, 42.8%; on 5-HT1A receptor, 70.2%. Moreover, the EC50 was 22.2 nM at 5-HT2A receptor [1] (HEK293 stably transfected cells, Ca2+ flux, read-out: 5-HT2A EC50) and 80.8 nM with rat synaptosomes. Moreover, the “% Release @ Max Dose (10 μM)” value with rat synaptosomes (rat synaptosomes) came to 80.77%. In addition, the Ki on 5-HT2A receptor [3] came out at 416 nM.
